How the values were obtained:
Type in all cases: in vivo
Helicoverpa armigera = assay: Mortality test for Helicoverpa armigera (cabbage leaf dip); conditions: foliar, 144 h, drug solution 100 ppm, 2 instar larva, after 6 days, 25° C., 12 replications
Protocol: A 10% emulsifiable concentrate of the compound of the present invention (depending on the type of the compound, a 10% wettable powder was subjected to the test) was diluted with water containing a spreader to prepare a drug solution in a concentration of 100 ppm. In this drug solution, a leaf of cabbage was immersed for about 10 seconds and was air-dried and then put into a petri dish. In the petri dish, one 2 instar larva of Helicoverpa armigera per petri dish was released and the petri dish was capped and stored in a thermostatic room of 25° C. The number of killed larvae after 6 days was counted and the mortality was calculated from the same calculation formula as that in Test Example 1. Here, the test was carried out in 12 replications.

Aulacophora femoralis = assay: Mortality test for Aulacophora femoralis (cucumber leaf dip); conditions: foliar, 144 h, drug solution 500 ppm, 2 instar larvae, after 6 days, 25° C.
Protocol: (§1) A 10% emulsifiable concentrate of the compound of the present invention (depending on the type of the compound, a 10% wettable powder was subjected to the test) was diluted with water containing a spreader to prepare a drug solution in a concentration of 500 ppm. In this drug solution, a leaf of cucumber was immersed for about 10 seconds and was air-dried and then put into a petri dish. In the petri dish, five 2 instar larvae of Aulacophora femoralis per petri dish were released and the petri dish was capped and stored in a thermostatic room of 25° C. The number of killed larvae after 6 days was counted and the mortality was calculated from the same calculation formula as that in Test Example 1. Here, the test was carried out in two replications.

Plutella xylostella = assay: Mortality test for Plutella xylostella (cabbage leaf dip); conditions: foliar, 144 h, drug solution 100 ppm (mark *), 2 instar larvae, after 6 days, 25° C.
Protocol: as §1, with “[…]” for “500”, “cabbage” for “cucumber”, “Plutella xylostella” for “Aulacophora femoralis”, “following” for “same”, “formula: Mortality (%)=(number of killed insects/number of released insects)×100.” for “formula as that in Test Example 1.”

Bemisia argentifolii = assay: Mortality test for Bemisia argentifolii (tomato leaf spray); conditions: 144 h, drug solution 500 ppm, sprayed 2.5 mL per cup, eggs on tomato leaf, killed larvae after 6 days, 25° C.
Protocol: (§2) In a styrol cup having an inner diameter of 7 cm, a wet filtration paper was laid, and on the paper, a cut-out leaf of tomato on which Bemisia argentifolii laid eggs (10 eggs/leaf) was laid. A 10% emulsifiable concentrate of the compound of the present invention (depending on the type of the compound, a 10% wettable powder was subjected to the test) was diluted with water containing a spreader to prepare a drug solution in a concentration of 500 ppm. The drug solution was sprayed using a rotary spray tower in an amount of 2.5 mL per styrol cup and the cup was capped and stored in a thermostatic room of 25° C. The number of killed larvae after 6 days was counted and the mortality was calculated from the same calculation formula as that in Test Example 1. Here, the test was carried out in two replications.

Liriomyza trifolii = assay: Mortality test for Liriomyza trifolii (kidney bean leaf dip); conditions: foliar, 144 h, drug solution 500 ppm, eggs on kidney bean leaf, killed larvae after 6 days, 25° C.
Protocol: A 10% emulsifiable concentrate of the compound of the present invention (depending on the type of the compound, a 10% wettable powder was subjected to the test) was diluted with water containing a spreader to prepare a drug solution in a concentration of 500 ppm. In this drug solution, a leaf of kidney bean which was cut out to a diameter of 7 cm, on which Liriomyza trifolii laid eggs (10 eggs/leaf) was immersed for about 10 seconds and was air-dried and then laid on a wet filtration paper laid in a styrol cup having an inner diameter of 7 cm. The styrol cup was capped and stored in a thermostatic room of 25° C. The number of killed larvae after 6 days was counted and the mortality was calculated from the same calculation formula as that in Test Example 1. Here, the test was carried out in two replications.

[1] = test system: Frankliniella occidentalis; assay: Mortality test for Frankliniella occidentalis (kidney bean leaf spray); conditions: 48 h, drug solution 500 ppm, sprayed 2.5 mL per cup, 1 instar larvae, after 2 days, 25° C.
Protocol: as §2, with “a” for “a cut-out”, “kidney bean cut out so as to have the same diameter as the inner diameter of the cup” for “tomato on which Bemisia argentifolii laid eggs (10 eggs/leaf)”, “laid, followed by inoculating the leaf with ten 1 instar larvae of Frankliniella occidentalis per leaf.” for “laid.”, “2” for “6”

Planococcus kraunhiae = assay: Mortality test for Planococcus kraunhiae (kidney bean leaf spray); conditions: 144 h, drug solution 500 ppm, sprayed 2.5 mL per cup, 1 instar larvae, after 6 days, 25° C.
Protocol: as §2, with “a” for “a cut-out”, “kidney bean cut out so as to have the same diameter as the inner diameter of the cup” for “tomato on which Bemisia argentifolii laid eggs (10 eggs/leaf)”, “laid, followed by inoculating the leaf with ten 1 instar larvae of Planococcus kraunhiae per leaf.” for “laid.”

Tetranychus urticae = assay: Mortality test for Tetranychus urticae (kidney bean leaf spray); conditions: 144 h, drug solution 500 ppm, sprayed 2.5 mL per cup, larvae, after 6 days, 25° C.
Protocol: as §2, with “a” for “a cut-out”, “kidney bean cut out so as to have the same diameter as the inner diameter of the cup” for “tomato on which Bemisia argentifolii laid eggs (10 eggs/leaf)”, “laid, followed by inoculating the leaf with ten larvae of Tetranychus urticae per leaf.” for “laid.”

O=C(NCc1ccc(C2=NCC(c3cc(Cl)cc(Cl)c3)(C(F)(F)F)C2)cc1Br)C1CC1 (centres unmarked) [No. 1-001, 2-bromo-N-cyclopropylcarbonyl-4-[4-(3,5-dichlorophenyl)-4-trifluoromethyl-4,5-dihydro-3H-pyrrole-2-yl] benzylamine]
≥ 80%: mortality at 100 ppm (Helicoverpa armigera)

FC(F)(F)C1(c2cc(Cl)cc(Cl)c2)CN=C(c2ccc(-n3cncn3)cc2)C1 (centres unmarked) [No. 3-001, 4-(3,5-dichlorophenyl)-2-[4-(1,2,4-triazole-1-yl)phenyl]-4-trifluoromethyl-4,5-dihydro-3H-pyrrole]
≥ 80%: mortality at 500 ppm (Aulacophora femoralis) | mortality at 100 ppm (Plutella xylostella) | mortality at 500 ppm (Bemisia argentifolii) | mortality at 500 ppm (Liriomyza trifolii) | mortality at 500 ppm [1] | mortality at 500 ppm (Planococcus kraunhiae) | mortality at 500 ppm (Tetranychus urticae)

— US8268754B2, “Substituted dihydroazole compound and pest control agent” (Nissan Chemical Industries, Ltd., priority 2007, dated 2012)
